This note sets out measurements from patent US10239843B2 (CANCER RESEARCH TECHNOLOGY LIMITED, priority 2014, dated 2019).

One assay addresses Human Full Length PARG (Homo sapiens (Human), UniProt Q86W56). Kind of assay: PARG enzyme assay (TR-FRET). It is filed as biochemical.
A further assay deals with PARG in HeLa cell line. Kind of assay: PARG cell assay (PAR chain immunofluorescence after MMS). The note with it: HeLa cells. It is filed as cell-based. An outline of the steps: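 HeLa cells were dosed with compound for 1 h, then given MMS at 50 μg/mL final for a further hour. Cells were methanol-fixed, permeabilised and stained overnight at 4° C with anti-PAR monoclonal antibody. Retained nuclear PAR chains, detected by indirect immunofluorescence, indicate PARG inhibition.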

Setting [1] is: read-out: PARG Biochem IC50 Geomean.
Where [2] appears, read: Homo sapiens, MMS 50 μg/mL, read-out: PARG Cell IC50 Geomean.
Setting [3] is: Homo sapiens, MMS treatment, read-out: PARG Cell IC50.
The mark [4] stands for this setting: MMS treatment, read-out: PARG Cell IC50.
Where [5] appears, read: MMS 50 μg/mL, read-out: PARG Cell IC50 Geomean.

Each structure is given as a SMILES string. Read-outs that look alike come from different tables or passages of the source.

Sequence of Human Full Length PARG (Q86W56 whole entry): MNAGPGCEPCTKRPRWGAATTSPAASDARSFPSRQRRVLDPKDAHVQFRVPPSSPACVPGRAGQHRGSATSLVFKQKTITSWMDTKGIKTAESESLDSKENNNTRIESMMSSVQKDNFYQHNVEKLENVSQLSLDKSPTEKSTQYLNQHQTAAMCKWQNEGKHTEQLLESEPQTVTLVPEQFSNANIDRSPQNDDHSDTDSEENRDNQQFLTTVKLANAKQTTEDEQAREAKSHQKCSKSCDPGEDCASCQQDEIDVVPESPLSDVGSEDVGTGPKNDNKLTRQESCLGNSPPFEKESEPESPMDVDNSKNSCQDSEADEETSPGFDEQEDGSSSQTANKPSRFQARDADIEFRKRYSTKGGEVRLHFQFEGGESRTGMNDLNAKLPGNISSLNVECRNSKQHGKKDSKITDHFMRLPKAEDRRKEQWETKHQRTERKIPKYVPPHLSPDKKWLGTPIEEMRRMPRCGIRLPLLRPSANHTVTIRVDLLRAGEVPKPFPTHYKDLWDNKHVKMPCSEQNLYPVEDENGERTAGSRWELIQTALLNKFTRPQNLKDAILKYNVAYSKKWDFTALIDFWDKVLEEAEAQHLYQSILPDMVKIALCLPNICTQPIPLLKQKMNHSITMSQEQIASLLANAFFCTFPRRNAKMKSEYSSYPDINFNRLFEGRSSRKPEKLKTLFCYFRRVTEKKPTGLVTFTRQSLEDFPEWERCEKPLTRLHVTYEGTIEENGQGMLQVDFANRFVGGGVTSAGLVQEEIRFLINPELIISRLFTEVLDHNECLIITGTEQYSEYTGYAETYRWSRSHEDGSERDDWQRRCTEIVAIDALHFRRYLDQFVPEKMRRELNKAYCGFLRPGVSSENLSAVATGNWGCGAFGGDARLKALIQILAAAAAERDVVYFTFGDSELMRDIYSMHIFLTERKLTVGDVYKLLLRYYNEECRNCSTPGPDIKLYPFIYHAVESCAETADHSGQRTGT

Usually IC50 stands for the concentration that gives 50% inhibition. As for `Cc1nc(C)c(Cn2c(=O)n(Cc3cnn(C)c3)c(=O)c3cc(S(=O)(=O)NC4(C)CC4)c(F)cc32)s1` [Example 396, 1-[(2,4-Dimethylthiazol-5-yl)methyl]-7-fluoro-N-(1-methylcyclopropyl)-3-[(1-methylpyrazol-4-yl)methyl]-2,4-dioxo-quinazoline-6-sulfonamide], the IC50 on Human Full Length PARG (setting [1]) was found to be 11 nM; with PARG in HeLa cell line (setting [2]), 17 nM.
Taken in the same sequence, the figures for `Cc1nc(C)c(Cn2c(=O)n(Cc3cnn(C)c3)c(=O)c3cc(S(=O)(=O)NC4(C)CC4)ccc32)s1` [Example 170] were 6 nM and 20 nM.
For `Cn1cc(Cn2c(=O)c3cc(S(=O)(=O)NC4(CF)CC4)ccc3n(CC3CCCC3)c2=O)cn1` [Example 608, 1-(Cyclopentylmethyl)-N-[1-(fluoromethyl)cyclopropyl]-3-[(1-methylpyrazol-4-yl)methyl]-2,4-dioxo-quinazoline-6-sulfonamide], the IC50 was 64 nM at Human Full Length PARG (read-out: PARG Biochem IC50) and 50 nM in the assay on PARG in HeLa cell line (setting [3]).
For the compound `Cn1c(=O)c2cc(S(=O)(=O)NC3(C)CC3)ccc2n(Cc2cnc(Cl)s2)c1=O` [Example 145], the half-inhibitory concentration (IC50) on Human Full Length PARG (setting [1]) was 151 nM; in the assay on PARG in HeLa cell line (setting [2]) it was 342 nM.
In the case of `CCC(=O)Cn1c(=O)c2cc(S(=O)(=O)NC3(C)CC3)ccc2n(C)c1=O` [Example 469, 1-Methyl-N-(1-methylcyclopropyl)-2,4-dioxo-3-(2-oxobutyl)quinazoline-6-sulfonamide], the IC50 on Human Full Length PARG (read-out: PARG Biochem IC50) amounted to 1200 nM; in the assay with PARG in HeLa cell line (setting [3]) it was 663 nM.
Regarding `Cn1cc(Cn2c(=O)c3cc(S(=O)(=O)NC4(C#N)CC4)ccc3n(Cc3cnn(C)c3)c2=O)cn1` [Example 378], the IC50 at Human Full Length PARG (setting [1]) was 44 nM; in the assay with PARG in HeLa cell line (setting [2]), 1960 nM.
Taken in the same sequence, the figures for `COCCn1c(=O)n(Cc2cnn(C)c2)c(=O)c2cc(S(=O)(=O)NC3(C#N)CC3)ccc21` [Example 357] were 153 nM and 1600 nM.
As for `Cn1c(=O)n(Cc2cnn(CC#N)c2)c(=O)c2cc(S(=O)(=O)NC3(C)CC3)ccc21` [Example 217], the IC50 at Human Full Length PARG (setting [1]) came out at 365 nM; in the assay on PARG in HeLa cell line (setting [2]), 529 nM.
Consider `Cc1cc(Cn2c(=O)c3cc(S(=O)(=O)NC4(C)CC4)ccc3n(CC(C)(C)C)c2=O)on1` [Example 465, 1-(2,2-Dimethylpropyl)-N-(1-methylcyclopropyl)-3-[(3-methylisoxazol-5-yl)methyl]-2,4-dioxo-quinazoline-6-sulfonamide], for which the IC50 on Human Full Length PARG (read-out: PARG Biochem IC50) amounted to 283 nM; in the assay on PARG in HeLa cell line (setting [3]) it was 188 nM.
On to `Cn1cc(Cn2c(=O)[nH]c3cc(F)c(S(=O)(=O)NC4(C#N)CC4)cc3c2=O)cn1` [Example 387, N-(1-Cyanocyclopropyl)-7-fluoro-3-[(1-methylpyrazol-4-yl)methyl]-2,4-dioxo-1H-quinazoline-6-sulfonamide], for which the IC50 at Human Full Length PARG (setting [1]) was found to be 452 nM; in the assay on PARG in HeLa cell line (setting [2]), 1520 nM.
Taken in the same sequence, the figures for `Cc1cc(Cn2c(=O)c3cc(S(=O)(=O)NC4(C)CC4)ccc3n(CC3CC3(F)F)c2=O)on1` (stereo not drawn) [Example 364] were 408 nM and 106 nM.
Taken in the same sequence, the figures for `Cc1noc(C)c1Cn1c(=O)c2cc(S(=O)(=O)NC3(C)CC3)ccc2n(Cc2ccc(F)cc2)c1=O` [Example 168] were 160 nM and 146 nM.
As to `Cn1c(=O)n(Cc2nncs2)c(=O)c2cc(S(=O)(=O)NC3(CF)CC3)ccc21` [Example 624, N-[1-(Fluoromethyl)cyclopropyl]-1-methyl-2,4-dioxo-3-(1,3,4-thiadiazol-2-ylmethyl)quinazoline-6-sulfonamide], the values for the IC50 at Human Full Length PARG (read-out: PARG Biochem IC50) and in the assay with PARG in HeLa cell line (setting [3]) were 1040 nM and 4350 nM, respectively.
`Cc1cc(Cn2c(=O)c3cc(S(=O)(=O)NC4(CF)CC4)ccc3n(CC3CC3)c2=O)on1` [Example 517, 1-(Cyclopropylmethyl)-N-[1-(fluoromethyl)cyclopropyl]-3-[(3-methylisoxazol-5-yl)methyl]-2,4-dioxo-quinazoline-6-sulfonamide]: the IC50 was determined as 56 nM at Human Full Length PARG (read-out: PARG Biochem IC50) and 41 nM with PARG in HeLa cell line (setting [3]).
The corresponding values for `CNC(=O)c1cc(S(=O)(=O)NC2(C)CC2)cc2c(=O)n(Cc3cnn(C)c3)c(=O)[nH]c12` [Example 450, N-Methyl-6-[(1-methylcyclopropyl)sulfamoyl]-3-[(1-methylpyrazol-4-yl)methyl]-2,4-dioxo-1H-quinazoline-8-carboxamide] are 213 nM and 2520 nM.
`Cn1cc(Cn2c(=O)c3cc(S(=O)(=O)NC4(C)CC4)ccc3n(CC3CC3(F)F)c2=O)cn1` (stereo not drawn) [Example 435, 1-[(2,2-Difluorocyclopropyl)methyl]-N-(1-methylcyclopropyl)-3-[(1-methylpyrazol-4-yl)methyl]-2,4-dioxo-quinazoline-6-sulfonamide]: the results for the IC50 on Human Full Length PARG (read-out: PARG Biochem IC50) and in the assay on PARG in HeLa cell line (setting [3]) were 104 nM and 46 nM, respectively.
Turning to `Cn1cc(Cn2c(=O)c3cc(S(=O)(=O)NC4(CF)CC4)ccc3n(CCn3cccn3)c2=O)cn1` [Example 560, N-[1-(Fluoromethyl)cyclopropyl]-3-[(1-methylpyrazol-4-yl)methyl]-2,4-dioxo-1-(2-pyrazol-1-ylethyl)quinazoline-6-sulfonamide], the IC50 was 530 nM on Human Full Length PARG (read-out: PARG Biochem IC50) and 810 nM in the assay with PARG in HeLa cell line (setting [4]).
For `Cn1c(=O)n(CC2COC2)c(=O)c2cc(S(=O)(=O)NC3(C)CC3)ccc21` [Example 481, 1-Methyl-N-(1-methylcyclopropyl)-3-(oxetan-3-ylmethyl)-2,4-dioxo-quinazoline-6-sulfonamide], the IC50 amounted to 7000 nM on Human Full Length PARG (read-out: PARG Biochem IC50) and 2840 nM in the assay on PARG in HeLa cell line (setting [3]).
With `Cn1cc(Cn2c(=O)c3cc(S(=O)(=O)NC4(C)CC4)c(F)cc3n(Cc3ccc(F)cc3)c2=O)cn1` [Example 390, 7-Fluoro-1-[(4-fluorophenyl)methyl]-N-(1-methylcyclopropyl)-3-[(1-methylpyrazol-4-yl)methyl]-2,4-dioxo-quinazoline-6-sulfonamide], the IC50 on Human Full Length PARG (setting [1]) came to 102 nM; in the assay with PARG in HeLa cell line (setting [5]), 70 nM.
As to `Cc1oncc1Cn1c(=O)c2cc(S(=O)(=O)NC3(C)CC3)ccc2n(C)c1=O` [Example 506, 1-Methyl-N-(1-methylcyclopropyl)-3-[(5-methylisoxazol-4-yl)methyl]-2,4-dioxo-quinazoline-6-sulfonamide], the 50% inhibitory concentration (IC50) on Human Full Length PARG (read-out: PARG Biochem IC50) is 770 nM; with PARG in HeLa cell line (setting [3]) it was 539 nM.
`Cn1cc(Cn2c(=O)c3cc(S(=O)(=O)NC4(CF)CC4)ccc3n(Cc3cscn3)c2=O)cn1` [Example 581, N-[1-(Fluoromethyl)cyclopropyl]-3-[(1-methylpyrazol-4-yl)methyl]-2,4-dioxo-1-(thiazol-4-ylmethyl)quinazoline-6-sulfonamide]: the IC50 worked out at 57 nM on Human Full Length PARG (read-out: PARG Biochem IC50) and 55 nM in the assay on PARG in HeLa cell line (setting [4]).
Turning to `CCc1nnc(Cn2c(=O)c3cc(S(=O)(=O)NC4(CF)CC4)ccc3n(C)c2=O)s1` [Example 628, 3-[(5-Ethyl-1,3,4-thiadiazol-2-yl)methyl]-N-[1-(fluoromethyl)cyclopropyl]-1-methyl-2,4-dioxo-quinazoline-6-sulfonamide], the IC50 at Human Full Length PARG (read-out: PARG Biochem IC50) was found to be 2690 nM; with PARG in HeLa cell line (setting [3]), 736 nM.
With `Cc1cc(Cn2c(=O)n(Cc3cnn(C)c3)c(=O)c3cc(S(=O)(=O)NC4(C)CC4)c(F)cc32)on1` [Example 391, 7-Fluoro-N-(1-methylcyclopropyl)-1-[(3-methylisoxazol-5-yl)methyl]-3-[(1-methylpyrazol-4-yl)methyl]-2,4-dioxo-quinazoline-6-sulfonamide], the concentration for half-maximal inhibition (IC50) on Human Full Length PARG (setting [1]) worked out at 24 nM; in the assay with PARG in HeLa cell line (setting [5]), 67 nM.
For the compound `Cn1cc(Cn2c(=O)c3cc(S(=O)(=O)NC4(CF)CC4)ccc3n(Cc3cn[nH]c3)c2=O)cn1` [Example 590, N-[1-(Fluoromethyl)cyclopropyl]-3-[(1-methylpyrazol-4-yl)methyl]-2,4-dioxo-1-(1H-pyrazol-4-ylmethyl)quinazoline-6-sulfonamide], the values for the IC50 at Human Full Length PARG (read-out: PARG Biochem IC50) and in the assay on PARG in HeLa cell line (setting [3]) were 30 nM and 773 nM, respectively.
Turning to `CC(C)Cn1c(=O)n(Cc2cnn(C)c2)c(=O)c2cc(S(=O)(=O)NC3(CF)CC3)ccc21` [Example 549, N-[1-(Fluoromethyl)cyclopropyl]-1-isobutyl-3-[(1-methylpyrazol-4-yl)methyl]-2,4-dioxo-quinazoline-6-sulfonamide], the half-maximal inhibitory concentration (IC50) at Human Full Length PARG (read-out: PARG Biochem IC50) amounted to 140 nM; in the assay on PARG in HeLa cell line (setting [4]) it was 91 nM.
For the compound `Cn1cc(CN2C(=O)c3cccc4cc(S(=O)(=O)NC5(C)CC5)cc(c34)C2=O)cn1` [Example 454, N-(1-Methylcyclopropyl)-2-[(1-methylpyrazol-4-yl)methyl]-1,3-dioxo-benzo[de]isoquinoline-5-sulfonamide], the IC50 at Human Full Length PARG (read-out: PARG Biochem IC50) stood at 728 nM; with PARG in HeLa cell line (setting [3]), 2070 nM.
With `Cc1ncc(Cn2c(OCC3CC3)nc3ccc(S(=O)(=O)NC4(C)CC4)cc3c2=O)s1` [Example 157], the values for the IC50 on Human Full Length PARG (setting [1]) and in the assay with PARG in HeLa cell line (setting [2]) were 302 nM and 138 nM, respectively.
Regarding `Cn1cc(Cn2c(=O)c3cc(S(=O)(=O)NC4(CF)CC4)ccc3n(Cc3cc[nH]n3)c2=O)cn1` [Example 586, N-[1-(Fluoromethyl)cyclopropyl]-3-[(1-methylpyrazol-4-yl)methyl]-2,4-dioxo-1-(1H-pyrazol-3-ylmethyl)quinazoline-6-sulfonamide], the IC50 turned out to be 82 nM on Human Full Length PARG (read-out: PARG Biochem IC50) and 530 nM in the assay with PARG in HeLa cell line (setting [3]).
Regarding `Cn1cc(Cn2c(=O)c3cc(S(=O)(=O)NC4(CF)CC4)ccc3n(CC3CCCO3)c2=O)cn1` (stereo not drawn) [Example 619, N-[1-(Fluoromethyl)cyclopropyl]-3-[(1-methylpyrazol-4-yl)methyl]-2,4-dioxo-1-(tetrahydrofuran-2-ylmethyl)quinazoline-6-sulfonamide], the half-inhibitory concentration (IC50) was found to be 190 nM on Human Full Length PARG (read-out: PARG Biochem IC50) and 233 nM in the assay on PARG in HeLa cell line (setting [3]).
For `Cc1ncc(Cn2c(=O)[nH]c3ccc(S(=O)(=O)NC4(C)CC4)cc3c2=O)s1` [Example 220, N-(1-Methylcyclopropyl)-3-[(2-methylthiazol-5-yl)methyl]-2,4-dioxo-1H-quinazoline-6-sulfonamide], the IC50 was found to be 273 nM at Human Full Length PARG (setting [1]) and 481 nM with PARG in HeLa cell line (setting [2]).
